Laboratory results reported in US4322545A, “Benzoic acid esters” (priority 1981, dated 1982).

Experiments:
skin = settings: in vivo; cited from earlier work
[1] = Spreading Coefficient and interfacial tension against water; format: physicochemical
Text: The higher the Spreading Coefficient, the greater the spreadability.

[2] = Ease of emulsification, water content of oil phase by Karl Fisher; format: physicochemical; settings: 20 ml toluene + 20 ml test solvent + 20 ml water, 40° C., 15 minutes
Description: In this Example, the emulsifying properties of the compositions of the invention were compared to various commonly used solvents and to mixes of benzoates.
Tests were conducted by adding exactly 20 ml of toluene to 20 ml of the test solvent in a glass stoppered cylinder and shaking to mix. When mixed, 20 ml of water was then added, the resulting mixture warmed to 40° C. and shaken 30 times.

[3] = Cloud point and pour point; format: physicochemical
Description: "Cloud point", refers to the temperature at which a waxy solid material appears as the liquid composition being examined is cooled. Cloud points are also associated with pour points, which is the lowest temperature at which a liquid will flow when a container is inverted. In all cases as the temperature is lowered, the cloud point is detected first, with the pour point being generally 5°-25° F. lower.

[4] = Greasiness comparison on skin; settings: 70°-73°F
Text: A comparison of the composition of the present invention was undertaken with a single benzoate ester falling within the carbon chain length range encompassed in the mixtures of the invention. […] This ester product is the benzoic acid ester of a mixture of C12, C13, C14 and C15 alcohols corresponding to that contained in the NEODOL 25 alcohol.

[5] = Gel formation/settling with suspending agents; format: physicochemical
Description: Gel formation refers to the ability of an emollient oil to form gels with suspending agents such as quaternized hectorite (such as Bentone 38) or stearalkonium (Bentone 37).
The viscosity of a gel is dependent on the polarity of the organic liquid it is suspended in. The more polar the liquid, the lower the viscosity. Non-polar or low polarity organic liquids result in higher viscosities. Completely non-polar liquids may present a problem in that too high viscosities results in a low percentage of a gellant. Upon further dilution (as normally occurs in formulation work), the ability to suspend matter can be lost in these instances.
Desirably, basic gel cocentrates and formulation containing same, should show stability to a wide range of temperatures without phase separation--which would destroy the gel viscosity and suspending capabilities. In addition, the basic function of such gels is to suspend an active material present in a formulation as a particulate matter. In a system such as aerosol antiperspirants, the active is aluminum chlorhydrate present as insoluble particulates, with a particle size ranging from submicron to about 50 microns. Before use, the container is shaken to re-dispense the particulates in suspension as to provide the proper dosage of activities. Re-dispersion should be immediate, complete, and last for a period of time sufficient for proper application. […]

rats = settings: Example 13; no source given; cited from earlier work

## CCCCCCCCCCCCCC(=O)OC(C)C [IPM (isopropyl myristate), isopropyl myristate]
skin
  Skin irritation: suspect as an irritant
[1]
  Spreading Coefficient: 17.7 dynes/cm
[1]; 25° C.
  interfacial tension against water: 17. dynes/cm
[2]
  % Water in Oil Phase (upper layer; by K-F Method): 0.12%

## CCCCCCCCCCCCCCCC(=O)OC(C)C [IPP (isopropyl palmitate), isopropyl palmitate]
[2]
  % Water in Oil Phase (upper layer; by K-F Method): 0.66%

## CCCCCCCCCCCCCCOC(=O)c1ccccc1 [Myristyl benzoate, myristyl (C14) benzoate]
[3]
  Cloud point: 21 °C
[4]
  Physical state at ambient room temperature: virtually a solid
[5]
  Settling time: 60 to 90 s
[5]; used as the organic liquid for the gel
  Gel viscosity: abnormally high viscosities

## CCCCOC(=O)c1ccccc1 [butyl benzoate]
rats
  LD50 (comparison ester): 3.5 g/kg of body weight

## Octyl Isononanoate
[2]
  % Water in Oil Phase (upper layer; by K-F Method): 0.26%
